Test results as given in paper PMC4423777, “Ciprofloxacin Derivatives Affect Parasite Cell Division and Increase the Survival of Mice Infected with Toxoplasma gondii” (PLoS ONE, 2015).
“And” between values parts separate entries of the source, which are not always exact repeats. Identical values can stand only once. “Also recorded” adds a separate entry of the source. Like-named read-outs stand apart in the source and are kept apart here.

How the values were obtained:
T. gondii [1] = test: Plaque assay in human foreskin fibroblasts, 10 days treatment; assay type: cell-based, Toxoplasma gondii; settings: HFF
Method: For plaque assay, 6-well tissue culture plates were seeded with human foreskin fibroblasts (HFF; ATCC). HFF was grown in high glucose Dulbeco’s Modified Eagle Medium supplemented with 10% FBS, 2mM L-glutamine, 100 U/ml penicillin, and 100 μg/ml streptomycin and maintained at 37°C with 5% CO2. After cultures reached confluence each well was infected with 10^4 of T. gondii. Infected cultures were treated for 10 days with Cipro derivatives, Cipro or left untreated.

T. gondii tachyzoites [2] = test: Immunofluorescence microscopy of treated tachyzoites in LLC-MK2 cells (cell division arrest, basal IMC gap); assay type: cell-based, Toxoplasma gondii; settings: for Basal IMC length mean: untreated control 0.65 ± 0.11 μm; for Effect on parasite division, anti-IMC1 labeling: 1 and 5 μM Et-Cipro and Adam-Cipro, 10 μM Ph-Cipro
Method: For Cipro assay, cells were infected in a ratio of 5:1 parasites per host cell and treated for 24, 48 and 72h. After treatment, infected cells were fixed in 3.7% freshly-prepared formaldehyde, permeabilized with 0.5% Triton X-100 for 15 min, and blocked with 3% bovine serum albumin (BSA) in PBS at pH 7.4 and room temperature for 1 h. All antibody incubations were performed in 3% BSA in PBS, for 1h, at room temperature. The following primary antibodies were used: anti-SAG1 (kindly provided by Dr. John Boothroyd, Stanford University School of Medicine, USA), at a dilution of 1:1000; anti-HSP60 and anti-Morn1 (kindly provided by Dr. Boris Striepen, University of Georgia, USA), diluted to 1:2000 and 1:100, respectively; and anti-IMC1 (kindly provided by Dr. Gary Ward, University of Vermont, USA), diluted to 1:1000. The secondary antibodies used here were anti-mouse/rabbit coupled to Alexa 488 or 546 (Molecular Probes). Sytox green (Molecular Probes) and DAPI (Sigma-Aldrich) were used to label the DNA. After labeling, the coverslips were mounted onto slides using Prolong gold (Life Technologies), and samples were examined on a TCSSP5 Leica or Zeiss LSM710 laser scanning confocal microscopes.

T. gondii tachyzoites [3] = test: Parasites per vacuole in LLC-MK2 cells after 6 h treatment (light microscopy); assay type: cell-based, Toxoplasma gondii
Method: For the treatment of T. gondii tachyzoites with Cipro derivatives in vitro, 5x10^5 LLC-MK2 cells (ATCC CCL7, Rockville, MD/EUA) in RPMI medium were plated on coverslips inside 24-well tissue culture plates, and allowed to settle at 37°C (5% CO2) for ~24h. Then, cells were infected with parasites (freshly-harvested from infected mice) at a 10:1 ratio of parasites to host cells. […] Then, coverslips were fixed with Bouin and stained with panoptic (solutions 2 and 3 of the ‘Panotico rápido’ kit, from Laborclin Ltda., Paraná, Brazil). Alternatively, cultures were washed three times with 0.5 ml of medium (to remove test compounds) and incubated for an additional 18 h in medium without drugs, before fixing and staining. The number of parasites per vacuole was scored by direct light microscopy examination. Three independent experiments were performed for each treatment condition, and the results were analyzed by two-way ANOVA (using GraphPad Prism 5.0).

[4] = tested on: Cryptosporidium parvum sporozoites; test: Cryptosporidium parvum in vitro growth assay in MDBK cells; assay type: cell-based
Method: C. parvum oocysts obtained from infected neonatal calves (Institut National de la Recherche Agronomique-INRA, Nouzilly, France) were purified as previously described and stored in PBS at 4°C. Madin Darby bovine kidney cell line (MDBK; ECACC # 88081201, Sophia Antipolis, France) was cultured at 37°C in a 5% CO2 moist atmosphere in growth medium: RPMI 1640 (Sigma, L’Isle d’Abeau, France) supplemented with 25 mM HEPES (Sigma H-3375), 200 U/ml of penicillin, 200 μg/ml of streptomycin (Sigma P-0781) and 10% fetal calf serum (FCS; Dutscher, Brumath, France).
Prior to infection, MDBK cells were trypsinized and seeded in just one well of a 24-well plate in 2 ml of RPMI 1640 with 1% FCS. Aseptic oocysts were prepared for excystation by incubation in RPMI-1640, pH 2 (for 30 min at 37°C). Then, oocytes were washed in RPMI 1640 with 1% FCS and allowed to interact with MDBK cells for 1.5 h at 37°C in a 5% CO2 atmosphere. After 3 washes by centrifugation at 160 g in RPMI 1640 to remove non-excysted oocysts and shells, infected cells were plated in 24-well plates containing glass coverslips, in 500 μl/well of RPMI/1%FCS, and allowed to settle for 24 h. The infected cells were subsequently washed 3 times with RPMI 1640 and allowed to grow for a further 5 h (in 500 μl/well of RPMI/1% FCS). 500 μl of medium containing twice-concentrated Cipro derivatives were then added in triplicates in an equal volume of growth medium and left for another 24 h. Cells were fixed in 100% methanol and stained with 20% Giemsa and 1% Alcian blue as previously described, and the effects against sporozoite proliferation were evaluated by examining at least 1000 cells/coverslip in a light microscope, using an oil immersion X100 objective.

[5] = tested on: T. gondii tachyzoites (RH strain); test: Survival of mice acutely infected with T. gondii, 7-day oral treatment; assay type: in vivo, Toxoplasma gondii; settings: 7 days, from 24 h post-infection
Method: In this study, we used tachyzoite forms the RH strain of Toxoplasma gondii, obtained from the peritoneal cavity of mice 2 days after infection. […] Drinking water and food were given ad libitum.
To determine compound efficacy against T. gondii in vivo, female Swiss mice were infected intraperitoneally (i.p.) with 5x10^3 T. gondii tachyzoites and treated with test compounds from 24 h post-infection. […] Mice were treated once daily for 7 days, by oral gavage, and mouse mortality was monitored once a day for a period of 60 days. During survival studies, mice were not inflicted to any suffering condition and mice presenting morbidity symptoms (shivering, ruffled hair and immobility) were euthanized by CO2 asphyxiation to minimize animal suffering, and then mortality was scored. Survival curves were calculated using the Kaplan and Meier method, and compared using the log-rank (Mantel-Cox) test, in GraphPad Prism 5.0 (GraphPad Software Inc.) and P<0.05 was considered statistically significant.

[6] = for Serum levels of creatinine kinase (in words): single oral dose, 48 h; for Mouse weight (g) After 48 h / Mouse weight (g) Initial: uninfected Swiss mice; for Mouse weight (g) Initial: before dosing; for Serum urea: reference 18–29 mg/dL; for Serum creatinine kinase: reference ≤ 1070 U/L
Method: Acute toxicity analysis was performed using non-infected female Swiss mice (19–21 g).

T. gondii tachyzoites [7] = settings: read-out: IC50 against T. gondii in vitro; after 48 h of treatment; cited from earlier work
T. gondii [8] = tested on: T. gondii; parameters: method as in PMID 8843293, PMID 11120943; settings: read-out: IC50 against T. gondii, cited from earlier work

## O=C(O)c1cn(C2CC2)c2cc(N3CCNCC3)c(F)cc2c1=O [Cipro, ciprofloxacin]
T. gondii [1]; 10 μM
  Parasite proliferation in plaque assay: significant decrease in parasite proliferation; also recorded: drastic reduction on parasite proliferation
T. gondii [1]; 20 / 20 μM
  Parasite proliferation in plaque assay: No growth; also recorded: no plaques were observed
T. gondii tachyzoites [2]; 20 μM, 24 h
  Alteration of tachyzoites (in words): not induced any significant alteration
T. gondii tachyzoites [2]; 20 μM, 48 h
  Parasitophorous vacuoles containing parasites presenting cell division arrest: 24%
T. gondii tachyzoites [2]; 20 μM, 72 h
  Parasitophorous vacuoles containing parasites presenting cell division arrest: 26%
T. gondii tachyzoites [3]; 20 μM, 6 h treatment (7 h total infection), LLC-MK2
  Vacuoles containing just one parasite: 54%
T. gondii tachyzoites [3]; 50 μM, 6 h treatment (7 h total infection), LLC-MK2
  Parasitophorous vacuoles having just one parasite: 68%
[4]; Cryptosporidium parvum, MDBK, after 24h, estimated, read-out: IC50 against C. parvum
  IC50: 39200 nM
[4]; Cryptosporidium parvum, 12.5 μM, 24 h, MDBK cells
  inhibition at 12.5 µM: 19.5 ± 1.1%
[4]; Cryptosporidium parvum, 25 μM, 24 h, MDBK cells
  inhibition at 25 µM: 46.1 ± 2.9%
[4]; Cryptosporidium parvum, 50 μM, 24 h, MDBK cells
  inhibition at 50 µM: 53.4 ± 2.51%

## CCOC(=O)c1cn(C2CC2)c2cc(N3CCNCC3)c(F)cc2c1=O [Et-Cipro]
T. gondii [1]; 5 μM
  Parasite proliferation in plaque assay: No growth; also recorded: no plaques were observed
[5]; 50 mg/kg/day oral
  Survival of T. gondii-infected mice, alive 60 days post-infection: 18%
T. gondii tachyzoites [2]; 1 μM, 24 h
  Basal IMC length mean: 0.76 ± 0.20 μm
T. gondii tachyzoites [2]; 5 μM, 24 h
  Parasite morphology, anti-SAG1 / Sytox green labeling: formation of large multinucleated parasites
  Basal IMC length mean: 0.80 ± 0.26 μm
T. gondii tachyzoites [2]; 24 h
  Effect on parasite division, anti-IMC1 labeling: parasite cell division arrest
[6]; higher doses
  Serum levels of creatinine kinase (in words): normal
[6]; single oral dose 25 mg/kg
  Mouse weight (g) After 48 h: 22.25 g
  Mouse weight (g) Initial: 19.87 g
  Serum urea: 55.8 mg/dL
  Serum creatinine kinase: 1727 U/L
[6]; single oral dose 50 mg/kg
  Mouse weight (g) After 48 h: 20.92 g
  Mouse weight (g) Initial: 19.15 g
  Serum urea: 51.2 mg/dL
  Serum creatinine kinase: 182 U/L
[6]; single oral dose 100 mg/kg
  Mouse weight (g) After 48 h: 22.27 g
  Mouse weight (g) Initial: 20.71 g
  Serum urea: 55.1 mg/dL
  Serum creatinine kinase: 578 U/L
[6]; single oral dose 200 mg/kg
  Mouse weight (g) After 48 h: 22.17 g
  Mouse weight (g) Initial: 20.0 g
  Serum urea: 49.3 mg/dL
  Serum creatinine kinase: 583 U/L
T. gondii tachyzoites [3]; 2 μM, 6 h treatment (7 h total infection), LLC-MK2
  Vacuoles containing just one parasite: 57%
T. gondii tachyzoites [3]; 6 h treatment
  Concentration required to affect parasite division significantly: > 2 µM
T. gondii tachyzoites [3]; 6 h treatment, concentrations with similar effect compared
  Increase in activity (cell division inhibition) compared with the original compound Cipro: 10 fold
[4]; 12.5 μM, 24 h, MDBK cells
  % inhibition of sporozoites growth: 20.3 ± 10.1%
[4]; 25 μM, 24 h, MDBK cells
  % inhibition of sporozoites growth: 32.6 ± 7.6%
[4]; 50 μM, 24 h, MDBK cells
  % inhibition of sporozoites growth: 36% and 36.43 ± 9.76%
T. gondii tachyzoites [7]
  IC50: 420 nM

## CCOC(=O)c1cn(C2CC2)c2cc(N3CCN(Cc4ccccc4)CC3)c(F)cc2c1=O [Ph-Cipro]
T. gondii [1]; 10 μM
  Parasite proliferation in plaque assay: No growth; also recorded: no plaques were observed
[5]; 100 mg/kg/day oral
  Survival of T. gondii-infected mice, alive 60 days post-infection: 13%
[5]; 150 mg/kg/day oral
  Survival of T. gondii-infected mice, alive 60 days post-infection: 18%
T. gondii tachyzoites [2]; 10 μM, 24 h
  Basal IMC length mean: 0.73 ± 0.24 μm
T. gondii tachyzoites [2]; 24 h
  Effect on parasite division, anti-IMC1 labeling: parasite cell division arrest
[6]; 200 mg/kg
  Serum levels of creatinine kinase (in words): slightly altered
[6]; high doses (200mg/kg)
  Toxicity to mice (in words): mild toxicity
[6]; single oral dose 25 mg/kg
  Mouse weight (g) After 48 h: 23.85 g
  Mouse weight (g) Initial: 21.21 g
  Serum urea: 49.2 mg/dL
[6]; single oral dose 50 mg/kg
  Mouse weight (g) After 48 h: 22.72 g
  Mouse weight (g) Initial: 19.30 g
  Serum urea: 50.6 mg/dL
  Serum creatinine kinase: 506 U/L
[6]; single oral dose 100 mg/kg
  Mouse weight (g) After 48 h: 21.94 g
  Mouse weight (g) Initial: 19.21 g
  Serum urea: 52.8 mg/dL
[6]; single oral dose 200 mg/kg
  Mouse weight (g) After 48 h: 22.20 g
  Mouse weight (g) Initial: 19.93 g
  Serum urea: 46.2 mg/dL
  Serum creatinine kinase: 1541 U/L
[4]; 12.5 μM, 24 h, MDBK cells
  % inhibition of sporozoites growth: 33.6 ± 11.6%
[4]; 25 μM, 24 h, MDBK cells
  % inhibition of sporozoites growth: 42.6 ± 14.6%
T. gondii tachyzoites [7]
  IC50: 1240 nM

## COc1c(N2CCNC(C)C2)c(F)cc2c(=O)c(C(=O)O)cn(C3CC3)c12 (stereo not shown) [gatifloxacin]
T. gondii [8]; HFF primary cell culture after 48h
  IC50: 520 nM

## N[C@@H]1[C@H]2CN(c3nc4c(cc3F)c(=O)c(C(=O)O)cn4-c3ccc(F)cc3F)C[C@@H]12 [trovafloxacin]
T. gondii [8]; L929 cell line
  IC50: 1370 nM
